Experimental data taken from article PMC4143171 (Journal of nuclear medicine : official publication, Society …, 2010).
Bridges are numbered along the chain shown (N, C = ends). Where no end group is shown, it is not given here.

Molecular target: integrin receptors expressed on surface of U87MG glioblastoma cells (Homo sapiens, UniProt P05106+P06756)
Assay: U87MG competition binding assay

Sequence: ECESGPCCRNCKFLKEGTICKRARGDDMDDYCNGKTCDCPRNPHKGPAT (disulfide 2-11, 7-32, 8-37, 20-39 (inferred)) [echistatin]
- IC50: 3.3 ± 0.6 nM
